# Results taken from patent US10058097B2, “Methods to increase corn productivity” (Valent BioSciences Corporation, priority 2016, dated 2018).
# Assays:
# Type in all cases: in vivo
# corn [1] = experiment: Greenhouse study: GB alone or in combination with GA4, nine days; conditions: GA4 120 mg/liter, GB 10,000 mg/liter; n = 7 plants
# Method: (§1) In several of the following examples, corn was grown in greenhouse conditions, which are defined as follows. Seeds of a commercial hybrid variety were sown in Pro-Mix® BX (Pro-Mix is a registered trademark of Premier Horticulture Ltd.) with the addition of Osmocote (14-14-14) and gypsum in three-liter pots. Greenhouses were kept at 25±3° C. under a 16:8 hour photoperiod, with illumination at canopy level of ˜250 μmoles m^−2s^−1. Corn was typically fertigated with Peters 21-5-20+micronutrients, calcium ammonium nitrate and magnesium sulfate. Typical growth rates for corn under these conditions ranged from 4-5 cm/day.
# (§2) In most greenhouse studies, spray applications were made. These applications were made in a track sprayer outfitted with a 4001E Teejet® nozzle (Teejet is available from and a registered trademark of Spraying Systems Co., Glendale Heights, Ill., USA) and applied at 40 psi. Although application volumes did vary between some studies, generally, 30 gallons/acre of spray solution was applied. Following spray applications, plants were returned to the greenhouse. Typically, experiments were blocked according to plant size, and a randomized complete block design (RCB) was used.
# (§3) Synergy was determined using the following formula, in which a synergy factor is calculated by the Abbott method: % Cexp=A+B−(AB/100), here % Cexp is the expected efficacy and “in which A and B are the increase in growth (or resistance to stress) levels given by the single [plant growth regulators]. If the ratio between the experimentally observed efficacy of the mixture Cobs and the expected efficacy of the mixture is greater than 1, synergistic interactions are present in the mixture” (Gisi, Synergistic Interaction of Fungicides in Mixtures, The American Phytopathological Society, 86:11, 1273-1279, 1996).
# In a greenhouse study, the effect of combining GB with GA4 was studied.
# corn [2] = experiment: Greenhouse study: Gibberellins, (S)-ABA and Glycine betaine on corn growth; conditions: GA3 or GA4 120 mg/liter, GB 10000 mg/liter, (S)-ABA 8.8 mg/liter
# Method: as §1, §2
# When gibberellins are combined with specific ratios of (S)-(+)-abscisic acid (“(S)-ABA”), a surprising enhancement of corn growth after application is often observed. The addition of GB to gibberellin+(S)-ABA spray combinations further increases the growth-promoting activity of the mixtures, as is shown in Table 6.
# potted corn plants [3] = experiment: Acute drought stress greenhouse study, potted corn, 7 and 14 days; conditions: acute drought stressed; 120 ppm GA3, 3000 ppm GB; spray at V4
# Method: In a separate acute drought stress greenhouse study conducted in Long Grove, Ill., corn plants were sprayed at V4 stage with solutions containing a non-ionic surfactant (0.25%, v/v) at 30 gallons of spray solution/acre and growth was determined by shoot height increase 7 and 14 days later. After treatment corn plants were not watered with the exception of one treatment of control (aqueous surfactant solution) that were watered as needed (well-watered control).
# potted corn plants [4] = experiment: Chronic drought stress greenhouse study, potted corn, 14 days; conditions: 20 Percent Volumetric Water Content, 120 mg/liter GA3, 3000 mg/liter GB, n = 5
# Method: In drought stress studies, corn plants were sprayed at the V4 stage with solutions containing a non-ionic surfactant (0.25%, v/v) at 30 gallons of spray solution/acre and growth was determined by change in height from time of treatment or fresh and dry shoot weight measurements 14 days later.
# In greenhouse drought stress studies, corn plants were treated and subsequently watered with an automated irrigation system that maintained the soil moisture in the pots at 45% or 20% volumetric water content (“VWC”). Plants set to 20% after treatment took about 4 days without the automated system adding water to those pots to reach 20% VWC and then the automated system added water as needed to maintain 20% VWC. Total soil moisture capacity was 45% VWC and 20% VWC represented drought stress conditions. This would be considered chronic stress, as a lower level of VWC was maintained throughout the experiment after treatment.
# greenhouse-grown maize [5] = experiment: Leaf chlorophyll by SPAD meter, GA3 dose +/- GB; conditions: GA3 0 mg/liter, GB 10000 mg/liter; n = 8 plants
# Method: In the same study, leaf chlorophyll was monitored by measurements with a SPAD meter (Minolta Model 502; Ramsey, N.J.). In this study, the chlorophyll level in the most recently fully-expanded leaf was measured at five different points and the results averaged.
# corn plants [6] = experiment: Greenhouse study: growth of corn after V3 spray with GA3 or GB, nine days; conditions: non-stressed greenhouse; spray at V3; GA3 120 mg/liter, GB 3000 mg/liter; n = 7
# Method: as §1, §2
# In a greenhouse study conducted in Long Grove, Ill., corn plants were sprayed at V3 stage with solutions containing a non-ionic surfactant (0.25%, v/v) at 30 gallons of spray solution/acre and growth was followed for nine days.
# as §3
# Based on a conservative approach, synergy was determined to be present at ratios of ≥1.10. When grown under non-stressed conditions, GA3 growth was synergized by the addition of 3,000 mg/liter glycine betaine (“GB”), with a synergy factor of 1.65 for growth and 1.68 for growth rate while dry weight/plant was not synergistic with a synergy factor of 0.95.
# corn [7] = experiment: Nutrient stress greenhouse study, GA3 and/or GB, 7 days; conditions: GA3 120 mg/liter, GB 10,000 mg/liter; for Change in Height: n = 7 plants
# Method: as §3
# During rainy periods in March-May in the Midwestern United States, nitrogen fertilizer for corn is often limited due to a combination of leaching and mineralization. GB included with GA3 can help overcome the slow growth caused by low nutrients. In a greenhouse study in Long Grove, Ill. we evaluated the effect of GA3, GB and the combination under ‘normal nutrient’ and limited nutrient conditions.
# greenhouse-grown maize [8] = experiment: Greenhouse study: effect of GA3 dose +/- GB on growth, 7 and 14 days; conditions: GA3 0 mg/liter, GB 10000 mg/liter
# Method: as §1, §2, §3
# In a separate study, the effect of one rate of GB on various doses of GA3 was studied.
# corn plants [9] = experiment: Chilling stress study (10° C. for five days) after spray with GA3 or GB; conditions: chilling stress at 10° C. for five days; GA3 120 mg/liter, GB 3000 mg/liter; n = 7 plants
# Method: In stress studies, plants were subjected to various stresses. In cold stress studies, after spraying, plants were grown in the greenhouse for an additional 48 hours before being measured and moved to a CMP6050 CONVIRON® chamber kept at 10° C. (Conviron is a registered trademark of Controlled Environments Limited Corporation). Illumination was at ˜225 μMoles, and light:dark conditions were on a 12:12 hour photoperiod. After 120 hours of chilling, plants were removed from the cold, measured, and returned to the greenhouse for 48 hours prior to harvest.
# as §3
# In a greenhouse and growth room study conducted in Long Grove, Ill., corn plants of a commonly grown hybrid were subjected to the following stress regimen: at two days post-foliar application, plants were moved into a controlled environment chamber, where the temperature was maintained at 10° C. with a 12:12 hour photoperiod for five days. At the end of the chilling period, the corn was moved back to the greenhouse for two days before destructive harvest.
compound,measurement,setting,value
"C=C1C[C@]23C[C@H]1CC[C@H]2[C@@]12CC[C@H](O)[C@@](C)(C(=O)O1)[C@H]2[C@@H]3C(=O)O [GA4, gibberellin A4]",Dry Weight,corn [1],7.68 g
same,Growth Rate,corn [1],7.1 cm/day
same,Plant Growth over 9 days,corn [1],64.1 cm
same,7 days Change in Height,corn [2],33.9 cm
same,14 days Change in Height,corn [2],62.2 cm
same,Dry Weight,corn [2],8.1 g
"C[N+](C)(C)CC(=O)[O-] [GB, Glycine betaine]",Dry Weight,corn [1],7.47 g
same,Growth Rate,corn [1],6.1 cm/day
same,Plant Growth over 9 days,corn [1],55.2 cm
same,Shoot Growth 7 days after treatment as Percent Increase as compared to Drought Stressed Control,potted corn plants [3],95.9%
same,Shoot Growth 14 days after treatment as Percent Increase as compared to Drought Stressed Control,potted corn plants [3],97.6%
same,Percent Dry Weight of Drought Stressed Control,potted corn plants [4],94.33%
same,Percent Fresh Weight of Drought Stressed Control,potted corn plants [4],93.16%
same,Chlorophyll (SPAD reading) 14 days,greenhouse-grown maize [5],34.0 SPAD reading
same,Dry Weight/Plant,corn plants [6],2.75 g
same,Growth Rate,corn plants [6],4.49 cm/day
same,Growth over 9 days,corn plants [6],40.4 cm
same,Dry Weight,corn [7]; Low Nutrients,2.79 g
same,Leaf Area (L1-L6),corn [7]; Low Nutrients,611.73 cm^2
same,Change in Height,corn [7]; Low Nutrients,24.54 cm
same,Dry Weight,corn [7]; Normal Nutrients,3.25 g
same,Leaf Area (L1-L6),corn [7]; Normal Nutrients,656.76 cm^2
same,Change in Height,corn [7]; Normal Nutrients,35.37 cm
same,"Growth Rate, 0-7 day(s)",greenhouse-grown maize [8],2.51 cm/day
same,"Growth Rate, 0-14 day(s)",greenhouse-grown maize [8],6.23 cm/day
same,Plant Growth over 14 days,greenhouse-grown maize [8],43.6 cm
same,Plant Growth over 7 days,greenhouse-grown maize [8]; n = 8 plants,17.6 cm
same,Growth Rate,corn plants [9],2.16 cm/day
same,Growth over 9 days,corn plants [9],19.41 cm
same,Leaf Area of L1-L5,corn plants [9],356.47 cm^2
